Reference: ChEMBL document CHEMBL6177995, “In Silico Discovery of Novel Potent Trace Amine-Associated Receptor TAAR1 Agonists as Promising Drug Candidates for the Treatment of Schizophrenia” (J Med Chem, 2025)

Assays:
[1] = target: T1, Trace amine-associated receptor 1 (Homo sapiens, UniProt Q96RJ0); experiment: Agonist activity at TAAR1 (unknown origin) transfected in HEK293 cells co-transfected with GalphaS-Nluc, Gbeta1/3 and Ggamma1/2/9-mVenus assessed as GalphaS-Gbeta/gamma dissociation by BRET assay; assay type: functional, cell-based
T1 sequence (Q96RJ0 whole entry): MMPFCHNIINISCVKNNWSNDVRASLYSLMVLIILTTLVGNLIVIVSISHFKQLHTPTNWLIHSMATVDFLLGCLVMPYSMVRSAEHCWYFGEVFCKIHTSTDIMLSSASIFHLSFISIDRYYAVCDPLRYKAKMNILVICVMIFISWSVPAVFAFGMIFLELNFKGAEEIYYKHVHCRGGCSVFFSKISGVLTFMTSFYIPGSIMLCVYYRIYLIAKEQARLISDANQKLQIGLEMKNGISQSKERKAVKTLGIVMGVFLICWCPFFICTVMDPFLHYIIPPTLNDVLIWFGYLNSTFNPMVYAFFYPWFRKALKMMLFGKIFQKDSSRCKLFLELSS

[2] = target: T1, Trace amine-associated receptor 1; experiment: Agonist activity at TAAR1 (unknown origin) transfected in HEK293 cells co-transfected with Galphaq-Nluc, Gbeta1/3 and Ggamma1/2/9-mVenus assessed as Galphaq-Gbeta/gamma dissociation by BRET assay; assay type: functional, cell-based

Row | Structure (SMILES) | EC50 [1] | EC50 [2]
1 | O=S(=O)(NC[C@@H]1CCCN1)c1ccccc1Br | > 10 µM | > 10 µM
2 | O=c1[nH]c2ccc(S(=O)(=O)NC[C@@H]3CCCN3)cc2[nH]1 | > 10 µM | > 10 µM
3 | O=c1[nH]c2ccc(S(=O)(=O)NC[C@@H]3CCCN3)cc2[nH]c1=O | – | 0.0055 µM
4 | O=S(=O)(NC[C@@H]1CCCN1)c1cccc(C(F)(F)F)c1 | > 10 µM | > 10 µM
5 | O=[N+]([O-])c1ccccc1S(=O)(=O)NC[C@@H]1CCCN1 | > 10 µM | > 10 µM
6 | O=S(=O)(NC[C@@H]1CCCN1)c1ccc2ccccc2c1 | – | 0.055 µM
7 | Cc1cccc(S(=O)(=O)NC[C@@H]2CCCN2)c1 | > 10 µM | > 10 µM
8 | O=S(=O)(NC[C@@H]1CCCN1)c1ccccc1 | > 10 µM | > 10 µM
9 | O=[N+]([O-])c1ccc(S(=O)(=O)NC[C@@H]2CCCN2)cc1 | > 10 µM | > 10 µM
10 | Cc1ccc(S(=O)(=O)NC[C@@H]2CCCN2)cc1 | > 10 µM | > 10 µM
